Here are results for two compounds from ChEMBL document CHEMBL2311338, “On the preparation of indoxyl red from indican and some new characteristics” (Bioorg Med Chem Lett, 2013).

As usually defined, the IC50 is the concentration needed to halve the response being measured. Low readings indicate greater potency, high ones weaker potency.

Experiment [1] can be described thus: Anticancer activity against 1 x 10^5 cells mouse NSF202 cells assessed as decrease in viable cells at 1 ug/ml measured after 2 days by trypan blue exclusion method. The experiment is classed as functional.
The species entered for experiment [2] is Mus musculus. Description: Anticancer activity against 2 x 10^5 cells mouse NSF202 cells assessed as cell growth inhibition at 1.02 uM measured after 2 days by trypan blue exclusion method. The experiment is classed as functional, cell-based.
The species entered for experiment [3] is Mus musculus. Description: Anticancer activity against 1 x 10^5 cells mouse NSF202 cells assessed as cell growth inhibition at 1.02 uM measured after 2 days by trypan blue exclusion method. The experiment is classed as functional, cell-based.
A short description of experiment [4]: Antiproliferative activity against human leukemia cells. Conditions: Leukemia cell. It is filed as functional, cell-based.
In a further experiment the test system is MCF7. Description: Antiproliferative activity against human MCF7 cells. The experiment is classed as functional, cell-based.
A short description of experiment [5]: Antiproliferative activity against human lung cancer cells. It is filed as functional, cell-based. The conditions noted are these: Cancer cell lines.
In a further experiment the test system is SNU-638. Description: Antiproliferative activity against human SNU638 cells. The experiment is classed as functional, cell-based.

Structures are written as SMILES. Active and inactive are the calls of the source. The calls are words filed in the database; no cut-off is given here.

`O=C1C(c2c[nH]c3ccccc23)=Nc2ccccc21` [INDOXYL RED]: the Activity in experiment [1] amounted to 40%. Also, the inhibition entry in the experiment listed under Mus musculus [2] and in the experiment filed under Mus musculus [3] was “Active” each time.
As to `O=Nc1c(-c2c(O)[nH]c3ccc([N+](=O)[O-])cc23)[nH]c2ccccc12`, the IC50 came out at 9.2 µM in experiment [4], 1.4 µM in the experiment with MCF7, 5.4 µM in experiment [5] and 1.2 µM in the experiment on SNU-638.
